Measurements published in patent publication US6083941A, “Inhibition of NMDA receptor activity by pregnenolone sulfate derivatives” (Trustees of Boston University, priority 1998, dated 2000).
≈ marks a conversion by molar mass, not a printed value. Where a name gives a salt, the structure may show the parent alone. Read-outs that look alike come from different tables or passages of the source.

Legend:
NMDA receptor = test: Whole cell patch clamp, NMDA-induced current in cultured chick spinal cord neurons; assay type: cell-based; settings: for inhibition of the NMDA response by extracellular steroid: 100 μM extracellular; for IC50: read-out: IC50 for inhibition of the NMDA response
Protocol: (§1) Cultures of dissociated spinal cord neurons were prepared as previously described (Farb, D. H., et al., J. Cell Biol., 80:651-661 (1979)). Briefly, the dissociated cells from 7-day chick embryos were plated on collagen-coated 35-mm tissue culture dishes in Eagle's minimum essential medium supplemented with 2.4 mM glutamine, 10% (v/v) heat-inactivated horse serum, 5% (v/v) chick embryo extract and antibiotics. Cultures were maintained in a humidified atmosphere of 5% CO2, 95% air at 37°. Cytarabine (1 μM) was added to the culture medium after 36 hr. of the initial plating to inhibit the proliferation of non-neuronal cells. One day later, this medium was replaced with a similar medium supplemented with 20.5 mM glucose, 19 mM KCl, and 2.5% chick embryo extract. Fresh medium was added twice weekly. Cultured neurons were used in experiments within 2-4 weeks after plating.
Experiments were carried out in 35-mm tissue culture dishes on the stage of an inverted phase contrast microscope. Whole cell currents were recorded by the whole cell variant of the patch clamp technique (Hamill, O. P., et al., Pfagers Arch. 891:85-100 (1981)). Patch electrodes had tip openings of about […] and resistances of 3-8 M.OMEGA. using an intracellular solution comprised of the following (in mM): 140 CsCl, 11 EGTA, and 10 HEPES (pH adjusted to 7.2 with CsOH). In experiments in which a high concentration of glycine was used, the intracellular solution was replaced with a low chloride (10 mM) pipette solution. This solution contained the following (in mM): 140 potassium gluconate, 10 KCl, 8 sodium gluconate, 11 EGTA, and 10 HEPES (pH adjusted to 7.2 with KOH). To prevent a marked run-down of NMDA-induced current at high NMDA concentrations, 4 mM potassium ATP was included in the intracellular solution. The bath solution contained the following (in mM): 150 NaCl, 4 KCl, 1 CaCl2, and 10 HEPES (pH adjusted to 7.2 with NaOH). No glycine was added to the solutions containing NMDA, because no additional glycine was required to obtain a robust NMDA response, and there was no effect of a maximal concentration (10 μM) of glycine on 5β3αS inhibition of the NMDA response. All experiments were performed at room temperature (23-25° C.).
Recordings were made using an Axopatch 1B patch clamp apparatus (Axon Instruments, Burlingame, Calif.). Cells with series resistances greater than 10 M.OMEGA. were rejected. After partial compensation, series resistances were between 3.5 and 6 M.OMEGA.. The holding potential was maintained at -70 mV unless otherwise noted. Currents were filtered at 1 kHz using an eight-pole Bessel filter (-3 dB) and digitized ([…]) using an on-line data acquisition system (pClamp, Axon Instruments).
Drug solutions were applied to single neurons by pressure ejection (15 psi) from seven-barrel pipettes. Seven-barrel pressure pipettes were positioned approximately […] from the neuronal soma. Under these conditions, the drug solution in the pressure pipette rapidly and effectively replaces the solution surrounding the target neurons with less than 10% dilution (Choi, D. W., et al., Nature (Lond.) 269:342-344 (1977); Chan, C. Y., et al., Life Sci., 83:2061-2069 (1983); Chan, C. Y. and Farb, D. H., J. Neurosci., 5:2365-2373 (1985)). All drugs were obtained from Sigma, with the except of AMPA hydrobromide (Research Biochemicals) and steroids (Steraloids). Stock solutions of steroids were prepared in dimethyl sulfoxide, the final concentration of which was 0.5% (v/v). To obviate the possible effects of dimethyl sulfoxide on the relevant agonist-induced currents, all other drug solutions including NMDA, kainate, AMPA and external buffer (in the pressure pipette) also contained 0.5% dimethyl sulfoxide. […]

[1] = Maximal solubility in the external buffer; assay type: physicochemical; settings: pH 7.2, aqueous buffer, 0.5% dimethyl sulfoxide
kainate receptors = test: Whole cell patch clamp, kainate-induced current in cultured chick spinal cord neurons; assay type: cell-based; settings: 100 μM steroid; -70 mV
Protocol: as §1
(§2) Experiments were carried out in 35-mm tissue culture dishes on the stage of an inverted phase contrast microscope. Whole cell currents were recorded by the whole cell variant of the patch clamp technique (Hamill, O. P., et al., Pfagers Arch. 891:85-100 (1981)). Patch electrodes had tip openings of about […] and resistances of 3-8 M.OMEGA. using an intracellular solution comprised of the following (in mM): 140 CsCl, 11 EGTA, and 10 HEPES (pH adjusted to 7.2 with CsOH). […]

[2] = biological target: T1, recombinant NMDA receptors (NR1100 and NR2A subunits) (Rattus norvegicus, UniProt P35439+Q00959); test: Two electrode voltage-clamp of Xenopus oocytes expressing recombinant NMDA receptors; assay type: cell-based
T1 construct: expressed in transfected cells; host or cells: Xenopus laevis oocytes injected with in vitro transcribed mRNA
T1 sequence (Q00959 23-1464, other chains not shown): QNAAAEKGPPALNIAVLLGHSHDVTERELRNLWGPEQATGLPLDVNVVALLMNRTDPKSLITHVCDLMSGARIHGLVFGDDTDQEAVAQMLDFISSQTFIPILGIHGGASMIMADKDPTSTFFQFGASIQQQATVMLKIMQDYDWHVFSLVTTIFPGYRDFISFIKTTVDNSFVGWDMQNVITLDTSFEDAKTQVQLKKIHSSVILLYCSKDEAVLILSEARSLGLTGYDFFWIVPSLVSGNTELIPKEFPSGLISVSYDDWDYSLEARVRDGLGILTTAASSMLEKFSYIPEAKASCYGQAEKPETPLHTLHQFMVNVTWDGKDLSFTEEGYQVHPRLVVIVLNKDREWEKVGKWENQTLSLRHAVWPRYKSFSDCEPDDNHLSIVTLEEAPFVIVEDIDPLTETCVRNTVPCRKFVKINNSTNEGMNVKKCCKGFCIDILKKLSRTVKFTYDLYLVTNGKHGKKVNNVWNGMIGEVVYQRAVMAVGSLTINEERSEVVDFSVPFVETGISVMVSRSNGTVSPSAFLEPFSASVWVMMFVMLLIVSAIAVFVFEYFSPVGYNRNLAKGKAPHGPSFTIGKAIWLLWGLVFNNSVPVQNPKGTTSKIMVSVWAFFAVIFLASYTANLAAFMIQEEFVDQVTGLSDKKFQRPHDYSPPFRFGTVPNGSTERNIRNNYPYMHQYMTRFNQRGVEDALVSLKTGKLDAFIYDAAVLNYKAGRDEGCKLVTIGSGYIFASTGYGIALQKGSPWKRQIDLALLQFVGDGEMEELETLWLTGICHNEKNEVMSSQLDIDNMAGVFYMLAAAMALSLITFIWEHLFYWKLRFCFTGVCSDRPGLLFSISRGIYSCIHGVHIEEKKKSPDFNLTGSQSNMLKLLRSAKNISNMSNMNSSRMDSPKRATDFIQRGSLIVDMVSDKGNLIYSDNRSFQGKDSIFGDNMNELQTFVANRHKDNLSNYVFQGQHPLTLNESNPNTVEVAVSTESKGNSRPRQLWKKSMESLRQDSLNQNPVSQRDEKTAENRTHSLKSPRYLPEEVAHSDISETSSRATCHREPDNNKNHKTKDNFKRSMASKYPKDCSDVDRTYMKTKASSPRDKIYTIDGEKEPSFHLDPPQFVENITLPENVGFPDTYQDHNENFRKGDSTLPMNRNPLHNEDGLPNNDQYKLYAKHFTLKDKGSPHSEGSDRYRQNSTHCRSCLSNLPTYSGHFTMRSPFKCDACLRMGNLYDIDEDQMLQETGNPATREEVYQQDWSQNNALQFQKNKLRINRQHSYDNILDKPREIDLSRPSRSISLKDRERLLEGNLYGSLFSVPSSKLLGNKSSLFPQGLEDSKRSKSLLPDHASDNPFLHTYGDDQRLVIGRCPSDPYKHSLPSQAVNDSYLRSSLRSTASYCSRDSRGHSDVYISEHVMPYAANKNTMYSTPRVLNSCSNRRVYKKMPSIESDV
Protocol: RNA preparation. mRNA were prepared through in vitro transcription of NR1100 and NR2A cDNAs using the mMessage mMachine kit (Ambion, Tex.). NR1100 and NR2A clones were kindly provided by Dr. Zukin and Dr. Nakanishie.
Xenopus expression system. Female, oocyte positive Xenopus laevis frogs were purchased from Nasco, Inc. (WI). The frogs were kept on a 12/12 light-dark cycle and maintained on a diet of chopped calf liver every 3 days. Prior to surgery, frogs were anesthetized in a 0.15% Tricaine solution (Sigma, Mo.) for 30-45 minutes. Ovarian sections containing the follicular oocytes were removed through a lateral abdominal incision and were immediately placed in calcium-free ND96 solution (in mM):96 NaCl; 1 MgCl2; 2 KCl; 5 Hepes; 2.5 pyruvate (pH adjusted to 7.4 with NaOH). Following a 2 hr. incubation in 0.2% collagenase type II (Sigma, Mo.) at room temperature, individual defolliculated oocytes were transferred into 60×15 mm glass petri dishes containing ND96 solution (in mM): 96 NaCl; 1 MgCl2; 2 KCl; 1.8 CaCl2; 5 Hepes; 2.5 pyruvate (pH adjusted to 7.4 with NaOH). The isolated oocytes were maintained in an incubator at 18° C. On the following date, batches of 20-40 selected oocytes (Dumont stage V and VI) were injected with 50 nl of prepared RNA solution (0.5 ng of NR1 and 12 ng of NR2A mRNAs per oocyte) using an electronic microinjector (Drummond, Pa.). The injected oocytes were used for electrophysiological experiments following 4-10 day incubation at 18° C.
Electrical recording and drug application. The ion current recordings were obtained in two electrodes voltage-clamp mode using an Axoclamp-2A amplifier (Axon Instruments, Inc., CA). The microelectrodes were fabricated with a programmed puller (Sutter Instrument Co., CA) from glass capillaries (Dagan, Minn.) and filled with 3M KCl solution. The resistance of filled microelectrodes was in the range of 2.5-3.5 M.OMEGA.. The oocytes were clamped at a holding potential of -70 mV. The membrane current was filtered at 500 Hz and sampled at 100 Hz frequency. The drugs were applied using a gravity driven external perfusion system. The data acquisition and external perfusion control were done using SuperScopeII software package (GW Instruments, MA). All experiments were performed at room temperature of 22-24° C.
The degree of modulation of the amino acid response by steroids, the percent change, was defined at (I'/I-1)×100%, where I and I' are respectively the agonist-induced currents in the absence and presence of steroid. Throughout, results are expressed as mean±SEM; statistical comparison of groups was carried out using Student's t test.

AMPA receptors = test: Whole cell patch clamp, AMPA-induced current in cultured chick spinal cord neurons; assay type: cell-based; settings: 100 μM steroid; -70 mV
Protocol: as §1, §2

[3] = 200 μM steroid in the absence of PS
[4] = 200 μM steroid in the presence of 200 μM PS

CC(=O)[C@H]1CC[C@H]2[C@@H]3CC[C@@H]4C[C@H](O)CC[C@]4(C)[C@H]3CC[C@]12C [5β3α, reference compound]
potentiation of the 30 μM NMDA-induced current (NMDA receptor; 50 μM nonsulfated steroid): 3.6±8.4% | effect on the NMDA response (NMDA receptor; 60 μM nonsulfated steroid): does not produce any significant effect | solubility [1]: 50 µM (≈ 15.9 µg/mL)

CC(=O)[C@H]1CC[C@H]2[C@@H]3CC[C@@H]4C[C@@H](OS(=O)(=O)O)CC[C@]4(C)[C@H]3CC[C@]12C [5β3βS, 3β-hydroxy-5β-pregnan-20-one sulfate]
inhibition of the NMDA response by extracellular steroid (NMDA receptor; in the absence of intracellular 5β3βS): 48±4% | inhibition of the NMDA response by extracellular steroid (NMDA receptor; in the presence of intracellular 5β3βS): 44±4% | inhibition of the response to 30 μM NMDA (NMDA receptor; 100 μM steroid applied with NMDA, holding potential -70 mV): 59% | inhibition of the 30 μM NMDA response with saturating glycine (NMDA receptor; 100 μM steroid, 10 μM glycine): did not significantly differ from that measured without added glycine | average inhibition of the NMDA response (NMDA receptor; 100 μM steroid, CsCl-containing intracellular solution, 2 cells): 49±5.0% | inhibition of the NMDA response (NMDA receptor; 100 μM steroid, in the presence of 100 μM spermine): 50±5% | inhibition of the peak NMDA response (NMDA receptor; [3]): 59±3% | effect of intracellular steroid on NMDA-induced currents (NMDA receptor; 200 μM steroid in the intracellular buffer): does not inhibit the NMDA-induced currents | inhibition of the peak NMDA response (NMDA receptor; [4]): 50±4% | inhibition of the NMDA response (NMDA receptor; after NEM treatment): 53±5% | inhibition of the NMDA response (NMDA receptor; in the presence of arachidonic acid): 49±5% | IC50 (NMDA receptor; in the absence of PS): 143 µM | IC50 (NMDA receptor; in the presence of 200 μM PS): 120 µM | direct response to steroid applied alone (NMDA receptor; steroid alone at greater than or equal to 100 μM, K+ current, not seen with CsCl intracellular solution): often induced a small outward current | inhibition of the 50 μM kainate-induced current (kainate receptors): 33% | inhibition of a near maximal NMDA response (200 μM) ([2]; 200 μM steroid): 54±8% | inhibition of the peak NMDA response [2, 3]: 46±8% | inhibition of the peak NMDA response [2, 4]: 54±5% | IC50 ([2]; IC50, in the absence of PS): 151 µM | IC50 ([2]; IC50, in the presence of 200 μM PS): 124 µM | inhibition of the 25 μM AMPA-induced current (AMPA receptors): 43%
